Results from ChEMBL document CHEMBL1201862, “PubChem BioAssay data set” (2004).
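1) Cells in 96-well plates. 2) Compound, 48 h, 5 concentrations. 3) Linear interpolation between surrounding doses. 4) Unreached endpoint = highest concentration. At the GI50, growth is halved.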 The source made the active and inactive calls. Rule as the data show it: active = GI50 up to about 1.1 µM and inactive = higher.

Tests used:
Assay in all cases: growth of human tumour cells (NCI), 48 h
SK-OV-3 = tested on: SK-OV-3
MDA-N = tested on: MDA-N
SK-MEL-2 = tested on: SK-MEL-2
CAKI-1 = tested on: CAKI-1
EKVX = tested on: EKVX
UO-31 = tested on: UO-31
SF-539 = tested on: SF-539
DU-145 = tested on: DU-145
BT-549 = tested on: BT-549
IGROV-1 = tested on: IGROV-1
NCI-H23 = tested on: NCI-H23
HCC 2998 = tested on: HCC 2998
K562 = tested on: K562
NCI/ADR-RES = tested on: NCI/ADR-RES
CCRF-CEM = tested on: CCRF-CEM
M14 = tested on: M14
PC-3 = tested on: PC-3
SF-268 = tested on: SF-268
HL-60 = tested on: HL-60

Measured: GI50

CNC1=CC(=O)C2=C(C1=O)[C@H]1CC[C@]3(C)C(=O)CC[C@H]3[C@@H]1CC2
inactive: SK-OV-3 43.6 µM | MDA-N 8.17 µM | SK-MEL-2 2.63 µM | CAKI-1 13.6 µM | EKVX 15.3 µM | UO-31 18.8 µM | SF-539 18.4 µM | DU-145 15 µM | BT-549 16.4 µM | IGROV-1 5.43 µM | NCI-H23 5.13 µM | HCC 2998 16 µM | K562 12.6 µM | NCI/ADR-RES 13 µM | CCRF-CEM 9.18 µM | M14 13.5 µM | PC-3 13.1 µM

CCOC(=O)c1c(NC(=O)c2cccs2)sc2c1CCC2
inactive: MDA-N > 100 µM | SK-MEL-2 > 100 µM | CAKI-1 > 100 µM | EKVX > 100 µM | SF-268 > 100 µM | UO-31 > 100 µM | SF-539 > 100 µM | DU-145 > 100 µM | BT-549 > 100 µM | IGROV-1 > 100 µM | NCI-H23 > 100 µM | K562 > 100 µM | NCI/ADR-RES > 100 µM | CCRF-CEM > 100 µM | M14 > 100 µM | PC-3 > 100 µM | HL-60 > 100 µM

COc1cc([C@H]2Oc3c(OC)cc(CCCO)cc3[C@@H]2CO)ccc1O [DIHYDRODEHYDRODICONIFERY ALCOHOL]
inactive: SK-OV-3 > 100 µM | MDA-N > 100 µM | SK-MEL-2 > 100 µM | EKVX > 100 µM | SF-268 > 100 µM | UO-31 57.8 µM | SF-539 > 100 µM | DU-145 > 100 µM | BT-549 94.4 µM | IGROV-1 > 100 µM | NCI-H23 54.5 µM | HCC 2998 > 100 µM | K562 > 100 µM | NCI/ADR-RES > 100 µM | CCRF-CEM > 100 µM | M14 > 100 µM | PC-3 > 100 µM | HL-60 > 100 µM

CO[C@@]12C[C@@H](C)[C@]34O[C@H]3C[C@]3(C)O[C@]43CC1=C(C)C(=O)O2
inactive: SK-OV-3 > 100 µM | MDA-N > 100 µM | SK-MEL-2 > 100 µM | CAKI-1 > 100 µM | EKVX > 100 µM | SF-268 > 100 µM | UO-31 > 100 µM | SF-539 > 100 µM | DU-145 > 100 µM | BT-549 > 100 µM | IGROV-1 38.8 µM | NCI-H23 > 100 µM | HCC 2998 > 100 µM | K562 > 100 µM | NCI/ADR-RES > 100 µM | M14 > 100 µM | PC-3 > 100 µM

CCOC(=O)c1nnn(CCCCO)c1C(=O)OCC
inactive: MDA-N > 100 µM | SK-MEL-2 > 100 µM | CAKI-1 > 100 µM | EKVX > 100 µM | SF-268 > 100 µM | UO-31 > 100 µM | SF-539 > 100 µM | DU-145 > 100 µM | BT-549 > 100 µM | IGROV-1 > 100 µM | NCI-H23 > 100 µM | HCC 2998 > 100 µM | NCI/ADR-RES > 100 µM | CCRF-CEM > 100 µM | PC-3 > 100 µM

OCCCc1ccc2c(c1)[C@H](CO)[C@@H](c1ccc(O)cc1)O2
inactive: SK-OV-3 > 100 µM | MDA-N 87.7 µM | SK-MEL-2 > 100 µM | EKVX > 100 µM | SF-268 > 100 µM | UO-31 68.2 µM | SF-539 > 100 µM | DU-145 > 100 µM | BT-549 20.4 µM | IGROV-1 > 100 µM | NCI-H23 35.8 µM | HCC 2998 16.6 µM | K562 > 100 µM | NCI/ADR-RES > 100 µM | CCRF-CEM 76 µM | M14 > 100 µM | PC-3 50.4 µM | HL-60 78.2 µM

C=CCN1C(=O)/C(=C/c2ccccc2)N=C1SC1OC(COC(C)=O)C(OC(C)=O)C(OC(C)=O)C1OC(C)=O (configuration not stated)
inactive: SK-OV-3 38.7 µM | MDA-N 29 µM | SK-MEL-2 18.5 µM | CAKI-1 16.3 µM | EKVX 15.7 µM | SF-268 21.4 µM | DU-145 26.6 µM | BT-549 28.6 µM | IGROV-1 28.3 µM | NCI-H23 24.9 µM | HCC 2998 49.7 µM | K562 24.4 µM | NCI/ADR-RES 26.2 µM | CCRF-CEM 22.5 µM | M14 30 µM | PC-3 16.5 µM | HL-60 26.5 µM

O=Cc1cc2c(cc1-c1c(C=O)ccc3c1OCO3)OCO2
inactive: SK-OV-3 > 10 µM | MDA-N > 10 µM | CAKI-1 > 10 µM | SF-268 > 10 µM | SF-539 > 10 µM | DU-145 > 10 µM | BT-549 > 10 µM | IGROV-1 > 10 µM | NCI-H23 > 10 µM | HCC 2998 > 10 µM | K562 > 10 µM | NCI/ADR-RES > 10 µM | CCRF-CEM > 10 µM | M14 > 10 µM | PC-3 > 10 µM | HL-60 > 10 µM

Cc1c(NC(=O)CSC(=S)N2CCN(Cc3ccccc3)CC2)c(=O)n(-c2ccccc2)n1C
inactive: SK-OV-3 > 100 µM | MDA-N > 100 µM | SK-MEL-2 > 100 µM | CAKI-1 > 100 µM | EKVX > 100 µM | SF-268 > 100 µM | UO-31 > 100 µM | SF-539 > 100 µM | DU-145 > 100 µM | BT-549 > 100 µM | IGROV-1 > 100 µM | NCI-H23 > 100 µM | HCC 2998 28.4 µM | K562 > 100 µM | NCI/ADR-RES > 100 µM | CCRF-CEM > 100 µM | M14 > 100 µM | PC-3 > 100 µM

COC(=O)/C=C(\C)CC/C=C(\C)CCC(O)C(C)(C)O (configuration not stated)
inactive: SK-OV-3 > 100 µM | MDA-N 23.8 µM | SK-MEL-2 15.9 µM | CAKI-1 20.4 µM | EKVX 41.9 µM | UO-31 39.2 µM | SF-539 18.7 µM | BT-549 29 µM | IGROV-1 25.8 µM | NCI-H23 29.2 µM | HCC 2998 16.8 µM | K562 26.1 µM | NCI/ADR-RES 18.7 µM | CCRF-CEM 15.5 µM | M14 27.1 µM | PC-3 14.8 µM | HL-60 15.6 µM

O=C1CC(=O)NC(NN2C(=O)CSC2c2ccc(Cl)c(Cl)c2)=N1 (configuration not stated)
inactive: SK-OV-3 > 100 µM | MDA-N 82.8 µM | SK-MEL-2 > 100 µM | CAKI-1 > 100 µM | SF-268 > 100 µM | UO-31 > 100 µM | SF-539 > 100 µM | DU-145 > 100 µM | BT-549 > 100 µM | IGROV-1 50.9 µM | NCI-H23 > 100 µM | HCC 2998 > 100 µM | K562 49.8 µM | NCI/ADR-RES > 100 µM | CCRF-CEM 19.5 µM | M14 31.6 µM | PC-3 > 100 µM
